Reference: US9889129B2, “Method of modulating ribonucleotide reductase” (Case Western Reserve University, priority 2012, dated 2018)
pIC50: −log10 of the molar value. Like-named read-outs stand apart in the source and are kept apart here. Values belong to the molecule of their own block, whether it stands above or below them.

Key:
[1] = target: T1, RR (Homo sapiens, UniProt P23921); experiment: RR inhibition by ligands with anticancer properties (Table 4)
T1 sequence (P23921 1-792): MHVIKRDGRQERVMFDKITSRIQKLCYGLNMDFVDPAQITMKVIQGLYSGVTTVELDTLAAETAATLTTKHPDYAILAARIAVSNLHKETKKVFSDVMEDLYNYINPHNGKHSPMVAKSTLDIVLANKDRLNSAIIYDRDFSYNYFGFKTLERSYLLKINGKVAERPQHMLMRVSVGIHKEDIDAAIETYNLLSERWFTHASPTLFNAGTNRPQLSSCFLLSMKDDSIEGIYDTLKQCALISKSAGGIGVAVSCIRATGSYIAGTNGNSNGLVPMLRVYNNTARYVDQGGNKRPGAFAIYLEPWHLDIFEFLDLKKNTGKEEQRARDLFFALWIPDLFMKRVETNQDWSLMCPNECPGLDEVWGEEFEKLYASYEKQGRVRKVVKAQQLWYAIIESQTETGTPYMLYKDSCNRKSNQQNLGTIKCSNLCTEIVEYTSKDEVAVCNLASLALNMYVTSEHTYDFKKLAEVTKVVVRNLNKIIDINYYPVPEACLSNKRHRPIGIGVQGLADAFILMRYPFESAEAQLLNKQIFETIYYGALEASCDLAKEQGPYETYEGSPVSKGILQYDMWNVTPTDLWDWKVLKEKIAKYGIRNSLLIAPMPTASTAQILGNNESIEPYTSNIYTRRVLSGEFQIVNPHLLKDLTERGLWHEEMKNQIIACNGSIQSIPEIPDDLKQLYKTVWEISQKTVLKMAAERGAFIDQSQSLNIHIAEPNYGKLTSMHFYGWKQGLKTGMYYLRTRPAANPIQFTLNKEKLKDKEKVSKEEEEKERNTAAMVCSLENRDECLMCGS

[2] = system: A549 non-small cell lung cells; pancreatic cells (Panc-1); colon cells (HCT-116); experiment: MTT Assay II; format: cell-based
From the text: We conducted an MTT assay to measure cell metabolism as a surrogate for cell number using A549, Non-Small Cell Lung cells; pancreatic cells (Panc-1); and colon cells (HCT-116).

[3] = system: A549 non-small cell lung cells; 231 triple negative breast cells; LN229; experiment: MTT Assay I; format: cell-based; conditions: continuous doses for three days; for pIC50: 72 h, range over A549, 231, LN229; for ACTIVITY: A549, 231, LN229
Procedure: We conducted an MTT assay to measure cell metabolism as a surrogate for cell number using A549, Non-Small Cell Lung cells; 231, Triple negative breast cells; and LN229. All values are relative to untreated controls, corrected for any MTT absorbance due to media alone.
The cells were treated with continuous doses of the indicated drugs for three days, at which time the MTT assay was run. The control is listed as a dose of 0.1 uM because we plot on a log scale and wish to avoid taking the log of 0 in the calculations.

[4] = system: ribonucleotide reductase activity; experiment: DNA synthesis assay
From the text: The IC50 of a drug can be determined by constructing a
dose-response curve and examining the effect of different concentrations of a candidate agent on cell growth and/or ribonucleotide reductase enzyme activity. IC50 values can be calculated for a given compound by determining the concentration needed to inhibit half of the maximum biological response of the compound.

[5] = system: MDA-MB-231 human breast carcinoma cell line; experiment: Growth inhibition studies on MDA-MB-231; format: cell-based
From the text: Growth inhibition studies on MDA-MB-231 human breast carcinoma cell line in the presence of gemcitabine (F2CDP-red) or cis-platin (CDDP-blue) alone (solid lines), or in combination with a non-toxic does of compound 2 (dashed lines).
Growth of the MDA-MB-231 cancer cell line is inhibited by compound 3.

[6] = A549, Panc-1, HCT-116, read-out: IC50

pIC50 [3]: 5.70 to 6.10 | pIC50 [4]: ≥ 6.00 | ACTIVITY ([4]; DNA synthesis assay, exposed for 2 continuous days): most potent
SMILES: O=C(CCCCCCCCC(=O)N/N=C/c1c(O)ccc2ccccc12)N/N=C/c1c(O)ccc2ccccc12 [Drug 1]
ACTIVITY [3]: Steady effect on all three cell lines

pIC50 [4]: 4.00 to 4.30
SMILES: Cc1c2c(c(O)c3c(O)ccc(Cl)c13)C(=O)C1(O)C(=O)C(C(=O)O)=C(O)C(N(C)C)C1C2 (stereo not shown) [Drug 4]

pIC50 [1]: 6.65
SMILES: O=C(CC1CCCCC1)N/N=C\c1cccc2cccc(O)c12 [Compound 3]
cytotoxicity / growth inhibition ([5]; single agent): cytotoxic against human breast carcinoma cells

pIC50 [1]: 5.00 to 5.30
SMILES: OC(COc1ccc2c(c1)CCC2)CN1CCN(Cc2ccccc2)CC1 (stereo not shown) [Compound 4]

pIC50 [2, 6]: 5.70 to 6.22 | pIC50 [1]: 5.70 to 6.22
SMILES: O=C(CCCCCCCCC(=O)N/N=C/c1c(O)ccc2ccccc12)N/N=C/c1c(O)ccc2ccccc12 [Compound 1]

Continued, molecule first:

SMILES: CCCCCCCCCCCCC(=O)NCC(=O)NC(CCCCN)C(=O)OC (stereo not shown) [Compound 5]
pIC50 [1]: 5.00 to 5.30

SMILES: Nc1ccn([C@@H]2O[C@H](CO)[C@@H](O)C2(F)F)c(=O)n1 [Gemcitabien, reference compound]
pIC50 ([2]; A549, Panc-1, HCT-116, read-out: IC50s): 6.30 to 7.00

SMILES: OC(COc1ccc(OCC(O)CN2CCN(C3c4ccccc4-c4ccccc43)CC2)cc1)CN1CCN(C2c3ccccc3-c3ccccc32)CC1 (stereo not shown) [Compound 2]
pIC50 [2, 6]: 5.10 to 5.52 | effect on cytotoxicity of gemcitabine or cis-platin ([5]; combination with a non-toxic dose of compound 2): increases cytotoxicity of gemcitabine of cis-platin

SMILES: OC(COc1ccc(OCC(O)CN2CCN(C3c4ccccc4-c4ccccc43)CC2)cc1)CN1CCN(C2c3ccccc3-c3ccccc32)CC1 (stereo not shown) [Drug 2]
pIC50 [3]: 4.92 to 5.52 | ACTIVITY [3]: Shows an extremely dramatic effect.
